Reference: PMC10671498, “Antiproliferative and Cytotoxic Properties of Propynoyl Betulin Derivatives against Human Ovarian Cancer Cells: In Vitro Studies” (International Journal of Molecular Sciences, 2023)
pIC50: −log10 of the molar value.

Legend:
A549 cells = tested on: A549 cells; parameters: method as in PMID 30947097; details: cited from earlier work
Hs294T cells = tested on: Hs294T cells; parameters: method as in PMID 30947097; details: cited from earlier work
[1] = tested on: 18Co normal myofibroblasts; test: SRB cell proliferation assay, 18Co normal myofibroblasts; assay type: cell-based
Method: Next, 18Co cells (ATCC No. CRL-1459™) were cultured in MEM medium containing HEPES buffer, 10% fetal bovine serum, 100 U/mL penicillin, and 100 μg/mL streptomycin (all from Sigma Aldrich).
(§1) Betulin 1 and its derivatives were dissolved in dimethyl sulfoxide (DMSO; Sigma Aldrich) as a 15 mM stock solution. Working solutions were prepared through the dilution of stock solutions with culture medium. The final DMSO concentration in culture media was adjusted to 0.2%. The effect of tested compounds on the proliferation of SK-OV-3 and OVCAR-3 cells was measured using the In Vitro Toxicology Assay Kit, Sulforhodamine B based (Sigma Aldrich). Cells were seeded in 96-well plates (Greiner Bio-One, Kremsmünster, Austria) at an initial density of 3 × 10^3 cells per well in 200 µL of culture medium. After 24 h of incubation, betulin 1 and its derivatives at a concentration range of 0.1 μM to 30 μM were added to the wells. Control cultures were treated with vehicle alone (0.2% DMSO). The incubation periods for cells with test compounds were 1 day, 3 days, and 5 days. After appropriate incubation periods, culture media were removed, and cells were fixed in 10% trichloroacetic acid solution for 60 min at 4 °C. After fixation, the TCA solution was removed, and the plates were washed three times with deionized water (300 μL/well) and dried. At the next step, cells were stained with 0.4% sulforhodamine B for 30 min. The excess dye was removed by washing three times with 1% (vol/vol) acetic acid. The protein-bound dye was dissolved in 200 μL 10 mM Tris base solution. Absorbance was measured at 570 nm and 690 nm (reference wavelength) using the MRX Revelation plate reader (Dynex Technologies, Chantilly, VA, USA).
(§2) GraphPad Prism 10.0.2 (GraphPad Software Inc., San Diego, CA, USA) software was used for calculations and the statistical analysis of the IC50 values (Table 1). IC50 was determined by using the “nonlinear regression” mode, and the “log(inhibitor) vs. normalised response—Variable slope” equation was chosen in GraphPad Prism software for calculations. The obtained data were normalized to run from 100% down to 0%, and logarithms of concentration were used. Graphs (Figure 2, Figure 3, Figure 4, Figure 5 and Figure 8, and Supplementary Figure S1) were also prepared using this software. In the case of the lack of normal distribution or homogeneity of variances, the remaining results were analyzed using a non-parametric Kruskal–Wallis test with multiple comparisons. Post hoc analysis was performed with the non-parametric equivalent of Tukey’s test. A p value of <0.05 was considered statistically significant. Otherwise, a one-way ANOVA followed by a Tukey’s post hoc test was applied. t-tests was used to perform pairwise comparisons between group means. Analysis was performed using Statistica 13.1 software (StatSoft, Tulsa, OK, USA).

OVCAR-3 cells [2] = test: LDH release assay, OVCAR-3; assay type: cell-based, human; details: OVCAR-3, 24 h, all concentrations (3, 10, 30 μM)
Method: (§3) In order to evaluate the cytotoxic effect, the release of LDH into the culture medium using the In Vitro Toxicology Assay Kit, Lactic Dehydrogenase Based (TOX7; Sigma Aldrich) was assessed. SK-OV-3 and OVCAR-3 cells were plated and cultured in 96-well plates (Greiner Bio-One) at the initial density of 5 × 10^3 cells per well in 100 µL of culture medium. The density of the cells was determined in the same manner as in the SRB assay. After 24 h, the media were replaced with the working solutions, which contained appropriate test compounds at concentrations of 3 μM, 10 μM, 30 μM, and control medium (0.2% DMSO). Cells were exposed to the test substances for 24 h. The background control comprised wells without cells with only control medium. To determine the maximal LDH release (high control), half of the control cultures were treated with lysis buffer. Wells with untreated cells were used as the low control of the assay. LDH activity in media was assessed according to the manufacturer’s protocol. The absorbance was measured at wavelengths of 490 nm and 690 nm (background), and the percentage of released enzyme was calculated for cells growing in the presence of compounds according to the formula:Cytotoxicity [%] = [(AT − AL)/(AH − AL)] × 100 where AT is the absorbance of treated wells; AL is low control; and AH is high control (maximal LDH release).
(§4) Cytotoxicity was expressed as a percentage of the released LDH calculated according to the difference between the absorbance of the treated and low control wells divided by the difference between the absorbance of the high control and low control wells.

CCRF/CEM cells = tested on: CCRF/CEM cells; parameters: method as in PMID 30947097; details: cited from earlier work
SK-OV-3 cells [3] = test: SRB cell proliferation assay, SK-OV-3; assay type: cell-based, human; details: for pIC50: Homo sapiens
Method: This study used ovarian cancer cell lines, which are part of the panel of cell lines used as part of the NCI-60 Human Cell Lines Screen program, characterized by overexpression of the c-erbB2/neu (HER2) receptor [62, 63]. The human ovarian cancer cell lines (SK-OV-3 and OVCAR-3) were purchased from the American Type Culture Collection (ATCC®, Manassas, Virginia, USA). SK-OV-3 cells (ATCC No. HTB-77™) were cultured in McCoy’s 5A medium containing D-glucose (3 g/L), L-glutamine (0.219 g/L), and sodium bicarbonate (2.2 g/L) supplemented with 10% fetal bovine serum, 10 mM HEPES (pH 7.3–7.5), 100 U/mL penicillin, and 100 μg/mL streptomycin (all from Sigma Aldrich).
as §1, §2

P388 cells = tested on: P388 cells; parameters: method as in PMID 30947097; details: cited from earlier work
DU145 cells = tested on: DU145 cells; parameters: method as in PMID 30947097; details: cited from earlier work
OVCAR-3 cells [4] = test: SRB cell proliferation assay, OVCAR-3; assay type: cell-based, human; details: for pIC50: Homo sapiens
Method: OVCAR-3 cells (ATCC No. HTB-161™) were cultured in RPMI-1640 medium containing HEPES buffer (2.383 g/L), sodium bicarbonate (1.5 g/L), sodium pyruvate (0.11 g/L) supplemented with 20% fetal bovine serum, 10 µg/mL bovine insulin, 100 U/mL penicillin, and 100 μg/mL streptomycin (all from Sigma Aldrich).
as §1, §2

MV-4-11 cells = tested on: MV-4-11 cells; parameters: method as in PMID 30947097; details: cited from earlier work
SK-OV-3 cells [5] = test: LDH release assay, SK-OV-3; assay type: cell-based, human; details: SK-OV-3, 24 h, all concentrations (3, 10, 30 μM)
Method: as §3, §4

Which results are given for `C#CC(=O)OC[C@]12CC[C@@H](C(=C)C)C1C1CCC3[C@@]4(C)CC[C@H](OP(=O)(OCC)OCC)C(C)(C)C4CC[C@@]3(C)[C@]1(C)CC2` (stereo partly shown) [Compound 3, 3-O-diethoxyphosphorylbetulin-28-O-propynoylbetulin]?
tumor growth inhibition (A549 cells): Significant tumor growth inhibition; tumor growth inhibition (Hs294T cells): Significant tumor growth inhibition; IC50 ([1]; 18Co, 5 days treatment, Neg: negative in the concentration used): Neg; pIC50 ([1]; 72 h): 4.91; cytotoxicity (released LDH) (OVCAR-3 cells [2]): strongest cytotoxicity; tumor growth inhibition (CCRF/CEM cells): Significant tumor growth inhibition; pIC50 (SK-OV-3 cells [3]; SK-OV-3, 72 h): 6.54; pIC50 (SK-OV-3 cells [3]; SK-OV-3, 120 h): 6.47; concentration at which antiproliferative activity (decrease in the number of cells) was evident (SK-OV-3 cells [3]; SK-OV-3, SRB assay, 0.1–30 µM): 1 µM; tumor growth inhibition (P388 cells): Significant tumor growth inhibition; tumor growth inhibition (DU145 cells): Significant tumor growth inhibition; pIC50 (OVCAR-3 cells [4]; OVCAR-3, 72 h): 6.05; pIC50 (OVCAR-3 cells [4]; OVCAR-3, 120 h): 6.31; concentration at which antiproliferative activity (decrease in the number of cells) was evident (OVCAR-3 cells [4]; OVCAR-3, SRB assay, 0.1–30 µM): 1 µM; tumor growth inhibition (MV-4-11 cells): Significant tumor growth inhibition; cytotoxicity (released LDH) (SK-OV-3 cells [5]): strong cytotoxic effect
